PubChem BioAssay AID330 (DTP/NCI, 2004)
“And” between values parts separate entries of the source, which are not always exact repeats. Identical values can stand only once. Inconclusive results and toxic doses are left out. How the source made its calls: active means survival T/C of 150% or more; inactive means T/C below 125% in these data.

Test system: P388 leukemia ip, CD2F1 mice, survival T/C
Test: NCI In Vivo Anticancer Drug Screen. Data for tumor model P388 Leukemia (intraperitoneal) in CD2F1 (CDF1) mice
Conditions: endpoint: median survival time, higher = longer survival
Summary of the method: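 Mice carrying the transplanted tumor received test compound or vehicle. Survival was recorded in each group, and the value is the treated-group measurement divided by that of the vehicle-treated control group.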

[1] = dose: 60.0 mg/kg/injection, schedule: Q01DX005 (ip), vehicle: saline with Tween-80
[2] = dose: 120.0 mg/kg/injection, schedule: Q01DX005 (ip), vehicle: saline with Tween-80
[3] = dose: 240.0 mg/kg/injection, schedule: Q01DX005 (ip), vehicle: saline with Tween-80
[4] = dose: 100.0 mg/kg/injection, schedule: Q01DX001 (ip), vehicle: saline
[5] = dose: 200.0 mg/kg/injection, schedule: Q01DX001 (ip), vehicle: saline
[6] = dose: 400.0 mg/kg/injection, schedule: Q01DX001 (ip), vehicle: saline
[7] = dose: 50.0 mg/kg/injection, schedule: Q01DX009 (ip), vehicle: saline
[8] = dose: 50.0 mg/kg/injection, schedule: Q01DX009 (ip), vehicle: saline with Tween-80
[9] = dose: 100.0 mg/kg/injection, schedule: Q01DX009 (ip), vehicle: saline with Tween-80
[10] = dose: 100.0 mg/kg/injection, schedule: Q01DX009 (ip), vehicle: saline
[11] = dose: 200.0 mg/kg/injection, schedule: Q01DX009 (ip), vehicle: saline
[12] = dose: 100.0 mg/kg/injection, schedule: Q04DX003 (ip), vehicle: saline with Tween-80
[13] = dose: 200.0 mg/kg/injection, schedule: Q04DX003 (ip), vehicle: saline with Tween-80
[14] = dose: 50.0 mg/kg/injection, schedule: Q01DX005 (ip), vehicle: Klucel (hydroxypropylcellulose) (HPC)
[15] = dose: 100.0 mg/kg/injection, schedule: Q01DX005 (ip), vehicle: Klucel (hydroxypropylcellulose) (HPC)
[16] = dose: 200.0 mg/kg/injection, schedule: Q01DX005 (ip), vehicle: Klucel (hydroxypropylcellulose) (HPC)

Measured: T/C

COc1cc(C2(C3C(CO)OC(=O)C3Cc3ccc4c(c3)OCO4)SCCCS2)cc(OC)c1OC (stereo not drawn)
inactive: dose: 25.0 mg/kg/injection, schedule: Q04DX002 (ip), vehicle: saline with Tween-80 100 % of control | dose: 50.0 mg/kg/injection, schedule: Q04DX002 (ip), vehicle: saline with Tween-80 87 % of control

COc1cccc(N2N=NCC2O)c1 (stereo not drawn)
inactive: [1] 104 % of control | [2] 102 % of control | [3] 104 % of control

Clc1cc(Cl)c2c(c1)[nH]c1nc3ccccc3nc12
inactive: dose: 6.25 mg/kg/injection, schedule: Q01DX005 (ip), vehicle: saline with Tween-80 101 % of control | dose: 12.5 mg/kg/injection, schedule: Q01DX005 (ip), vehicle: saline with Tween-80 90 % of control | dose: 50.0 mg/kg/injection, schedule: Q01DX005 (ip), vehicle: saline with Tween-80 96 % of control | dose: 100.0 mg/kg/injection, schedule: Q01DX005 (ip), vehicle: saline with Tween-80 100 % of control | dose: 200.0 mg/kg/injection, schedule: Q01DX005 (ip), vehicle: saline with Tween-80 104 % of control

O=C(N/N=C/c1ccc(Cl)cc1)c1cc2ccccc2oc1=O
inactive: [4] 100 % of control | [5] 103 % of control | [6] 105 % of control

CCC#CC(=O)O
inactive: dose: 25.0 mg/kg/injection, schedule: Q01DX009 (ip), vehicle: saline 96 % of control | [7] 95 % of control and 96 % of control

O=[N+]([O-])c1cnc2ccccn12
inactive: dose: 12.5 mg/kg/injection, schedule: Q01DX009 (ip), vehicle: saline with Tween-80 100 % of control | dose: 25.0 mg/kg/injection, schedule: Q01DX009 (ip), vehicle: saline with Tween-80 93 % of control | [8] 94 % of control | [9] 95 % of control

CCCCOP(=O)(O)SP(=O)(O)OCCCC
inactive: dose: 100.0 mg/kg/injection, schedule: Q01DX001 (ip), vehicle: Klucel (hydroxypropylcellulose) (HPC) 103 % of control | [4] 103 % of control and 106 % of control and 98 % of control | dose: 100.0 mg/kg/injection, schedule: Q04DX003 (ip), vehicle: suspension in saline 105 % of control | dose: 200.0 mg/kg/injection, schedule: Q01DX001 (ip), vehicle: Klucel (hydroxypropylcellulose) (HPC) 119 % of control | [5] 106 % of control and 98 % of control and 103 % of control | dose: 200.0 mg/kg/injection, schedule: Q04DX003 (ip), vehicle: suspension in saline 105 % of control | dose: 400.0 mg/kg/injection, schedule: Q01DX001 (ip), vehicle: Klucel (hydroxypropylcellulose) (HPC) 104 % of control | [6] 106 % of control and 103 % of control and 94 % of control | dose: 400.0 mg/kg/injection, schedule: Q04DX003 (ip), vehicle: suspension in saline 110 % of control

CCCCN(CCCC)P1(=O)OP(=O)(N(CCCC)CCCC)OP(=O)(N(CCCC)CCCC)O1 (stereo not drawn)
inactive: dose: 12.5 mg/kg/injection, schedule: Q01DX005 (ip), vehicle: saline 97 % of control | dose: 25.0 mg/kg/injection, schedule: Q01DX005 (ip), vehicle: saline 101 % of control | dose: 50.0 mg/kg/injection, schedule: Q01DX005 (ip), vehicle: saline 101 % of control and 96 % of control

CCCCCCSCN(CC)CC
inactive: [7] 103 % of control | [10] 107 % of control | [11] 112 % of control

O=C(CCl)N1C(=O)NC(c2ccc(Cl)cc2)(c2ccc(Cl)cc2)C1=O
inactive: dose: 5.0 mg/kg/injection, schedule: Q04DX003 (ip), vehicle: other 105 % of control | dose: 10.0 mg/kg/injection, schedule: Q04DX003 (ip), vehicle: other 116 % of control | dose: 20.0 mg/kg/injection, schedule: Q04DX003 (ip), vehicle: other 108 % of control and 123 % of control

O=C(O)C(Cl)Cc1cnc[nH]1 (stereo not drawn)
inactive: dose: 100.0 mg/kg/injection, schedule: Q04DX003 (ip), vehicle: saline 103 % of control | dose: 200.0 mg/kg/injection, schedule: Q04DX003 (ip), vehicle: saline 91 % of control | dose: 400.0 mg/kg/injection, schedule: Q04DX003 (ip), vehicle: saline 91 % of control

CCCCOCCOCCOC1C2CC3C1C3(OCCOCCOCCCC)C2 (stereo not drawn)
inactive: [7] 104 % of control | [10] 99 % of control | [11] 104 % of control

Cc1cccc(NC(=S)NC2C(=O)Nc3ccccc32)c1 (stereo not drawn)
inactive: [1] 102 % of control | [2] 100 % of control | [3] 98 % of control

O=C1OC2(c3ccccc31)c1cc(I)c(O)c(I)c1Oc1c2cc(I)c(O)c1I
inactive: [12] 91 % of control | [13] 95 % of control

NC(=S)N=Nc1c(O)n(CCCO)c2ccccc12
inactive: dose: 60.0 mg/kg/injection, schedule: Q01DX005 (ip), vehicle: Klucel (hydroxypropylcellulose) (HPC) 93 % of control | dose: 120.0 mg/kg/injection, schedule: Q01DX005 (ip), vehicle: Klucel (hydroxypropylcellulose) (HPC) 100 % of control

Fc1ccc(N2C(c3ccccc3)=N[C@@H](N3CCCCC3)[C@@H]2N2CCCCC2)cc1
inactive: [14] 102 % of control | [15] 99 % of control | [16] 100 % of control

CC(=O)OC1c2c(C)coc2C(=O)C23OC2CCC(C)C13C (stereo not drawn)
inactive: dose: 5.0 mg/kg/injection, schedule: Q01DX009 (ip), vehicle: saline with Tween-80 100 % of control | dose: 10.0 mg/kg/injection, schedule: Q01DX009 (ip), vehicle: saline with Tween-80 102 % of control | dose: 20.0 mg/kg/injection, schedule: Q01DX009 (ip), vehicle: saline with Tween-80 102 % of control | dose: 40.0 mg/kg/injection, schedule: Q01DX009 (ip), vehicle: saline with Tween-80 96 % of control

COc1ccc(C(CC(=O)O)CC(=O)c2ccc(N(CCCl)CCCl)cc2)cc1 (stereo not drawn)
inactive: dose: 100.0 mg/kg/injection, schedule: Q01DX001 (ip), vehicle: suspension in saline 98 % of control | dose: 200.0 mg/kg/injection, schedule: Q01DX001 (ip), vehicle: suspension in saline 99 % of control

Oc1ccc(O)c([P+](c2ccccc2)(c2ccccc2)c2ccccc2)c1
inactive: [8] 111 % of control | [9] 115 % of control

Nc1nc(N2CCCCC2)c2nc(Cl)n(C3OC(CO)C(O)C3O)c2n1 (stereo not drawn)
inactive: [1] 92 % of control | [2] 101 % of control | [3] 100 % of control

CCOc1cc2c(cc1C(C)c1cc(OC)c(OC)c(OC)c1)OCO2 (stereo not drawn)
inactive: [14] 96 % of control | [15] 102 % of control | [16] 96 % of control

Cn1c(=O)[nH]c(N)c(C(=O)CCl)c1=O
inactive: [1] 97 % of control | [2] 105 % of control

COc1ccc(-c2nc3ccccc3[nH]2)cc1
inactive: dose: 50.0 mg/kg/injection, schedule: Q04DX003 (ip), vehicle: saline with Tween-80 103 % of control | [12] 106 % of control | [13] 102 % of control | dose: 400.0 mg/kg/injection, schedule: Q04DX003 (ip), vehicle: saline with Tween-80 120 % of control

CN1C(=O)C(n2[nH]c(=O)n(-c3ccccc3)c2=O)C(=O)N(C)C1=O
inactive: dose: 50.0 mg/kg/injection, schedule: Q01DX009 (ip), vehicle: Klucel (hydroxypropylcellulose) (HPC) 99 % of control | dose: 100.0 mg/kg/injection, schedule: Q01DX009 (ip), vehicle: Klucel (hydroxypropylcellulose) (HPC) 89 % of control | dose: 200.0 mg/kg/injection, schedule: Q01DX009 (ip), vehicle: Klucel (hydroxypropylcellulose) (HPC) 103 % of control

CCCCOC(=S)Nc1ccccc1
inactive: dose: 50.0 mg/kg/injection, schedule: Q01DX009 (ip), vehicle: saline + Tween-80 + alcohol 99 % of control | [8] 104 % of control | dose: 100.0 mg/kg/injection, schedule: Q01DX009 (ip), vehicle: saline + Tween-80 + alcohol 108 % of control | [9] 100 % of control | dose: 200.0 mg/kg/injection, schedule: Q01DX009 (ip), vehicle: saline + Tween-80 + alcohol 98 % of control | dose: 200.0 mg/kg/injection, schedule: Q01DX009 (ip), vehicle: saline with Tween-80 98 % of control | dose: 400.0 mg/kg/injection, schedule: Q01DX009 (ip), vehicle: saline + Tween-80 + alcohol 97 % of control | dose: 400.0 mg/kg/injection, schedule: Q01DX009 (ip), vehicle: saline with Tween-80 110 % of control

CN(C(=O)c1ccccc1)C1CCCC(=O)CC1 (stereo not drawn)
inactive: dose: 25.0 mg/kg/injection, schedule: Q01DX005 (ip), vehicle: Klucel (hydroxypropylcellulose) (HPC) 105 % of control | [14] 100 % of control | [15] 99 % of control | [16] 97 % of control
